# Read-outs that look alike come from different tables or passages of the source.
# Experiments:
# [1] = tested on: senescent mouse fibroblasts induced by ionizing irradiation, oncogene overexpression, or genotoxic stress (etoposide treatment); assay: Cell viability, oncogene-, etoposide- and irradiation-induced senescent MEFs; assay type: cell-based; conditions: oncogene- (Kras), etoposide- and irradiation- (10 Gy) induced senescent MEFs vs non-senescent; increasing doses
# [2] = tested on: senescent lung cells from 23-month-old mice; assay: Cell viability, mouse lung fibroblasts of old and young mice; assay type: cell-based; conditions: senescent lung cells from 23-month-old mice vs non-senescent lung cells from young mice; increasing doses
# Procedure: Mouse embryonic fibroblasts (MEFs) were isolated from E13.5 embryos as described previously (Zhao et al., Cell Stem Cell 23, 31-45 e37([…])). Newborn mouse skin fibroblasts (NBFs) were isolated from the skin of day 1-3 newborn mice. Adult mouse lung fibroblasts were isolated from 2-month-old and 23-month-old mice. Briefly, mouse embryonic tissues, skin and lung were obtained from described donor mice. Then, these tissues were minced with forceps and incubated in 2 mg/ml collagenase IV (Gibco) for 2-4 hours at 37° C. After enzyme treatment, cells were collected by centrifugation and resuspended in high-glucose DMEM (Gibco) supplemented with 10% fetal bovine serum (FBS) and 1% penicillin-streptomycin (Gibco). The three types of mouse primary cells were all cultured in a humidified incubator at 37° C. and 5% CO2.
# To test the viability of senescent and non-senescent cells treated with SSK1, cells were stained with a mixture of Hoechst 33342 and propidium iodide (PI) (CA1120, Solarbio) to distinguish living and dead cells. After treatment with the small molecules, the cell culture medium was removed, and the cells were washed once with PBS. […] The plate was incubated at 4° C. for 30 min and observed on a fluorescence microscope or automatic cell imaging system. Viable cells were quantified using a MD Image Xpress Micro XL (Molecular Devices).
# [3] = tested on: SA-β-gal-positive senescent cells in bleomycin-injured lungs; assay: Bleomycin-induced lung injury (lung fibrosis and senescence) mouse model; assay type: in vivo, mice
# Procedure: All drugs were mixed in 90% PBS, 5% Tween-80 (P1754, Sigma), and 5% polyethylene glycol (PEG) (81172, Sigma) and administered to mice by intraperitoneal (i.p.) injection. For treating bleomycin-injured young mice, SSK1 (0.5 mg/kg) or vehicle were given consecutive two days every week for five weeks. For old mice (20-month-old), SSK1 (0.5 mg/kg), gemcitabine (0.5 mg/kg) or vehicle were administrated for continued 3 days every two weeks. Gemcitabine was purchased from MCE.
# Bleomycin was purchased from Selleck. To induce lung senescence and fibrosis, young male and female mice (3-month-old) were subjected to transtracheal injection of bleomycin (1 mg/kg) as previously reported (Bivas-Benita et al., Eur J Pharm Biopharm 61, 214-218(2005))
# Cultured cells were washed once with PBS and fixed in β-galactosidase staining fix solution for 15 min at room temperature. Cells were then washed three times with PBS and incubated with β-galactosidase staining solution (Beyotime Biotechnology) for 16-20 hours at 37° C. For 12-well plates, 1 ml of β-galactosidase staining solution was added to each well. The plate was sealed with Parafilm to prevent evaporation of the staining medium. After the overnight incubation, cells were washed with PBS and observed under a bright field microscope. For β-galactosidase staining of frozen sections, the frozen sections were dried at 37° C. for 20-30 min and then fixed in β-galactosidase staining fix solution for 15 min at room temperature. The frozen sections were washed three times with PBS and incubated with β-galactosidase staining solution overnight at 37° C. After completion of β-galactosidase staining, the sections were stained with eosin for 1-2 min, rinsed under running water for 1 min, differentiated in 1% acid alcohol for 10-20 sec, and washed again under running water for 1 min. Sections were dehydrated in increasing concentrations of alcohols and cleared in xylene. Excess xylene was drained and a coverslip was placed over the section. After drying, the sample was observed under a microscope.
# Lung, liver, and kidney frozen sections stained with SA-β-Gal were quantified by ImageJ software (NIH) to measure the SA-β-Gal positive area. The total area was quantified by eosin positive area with ImageJ software (NIH). The relative positive SA-β-Gal positive cells were calculated with the SA-β-Gal positive area divided by the total area. Each mouse was measured with 3-5 regions.
# For detecting the p21 expression in lungs, we conducted the immunohistochemical staining experiment for p21 with an immunohistochemical staining kit (SP-9000, ZSGB-BIO). Freshly isolated tissues were fixed by 10% formalin for one day and then transferred in 20% formalin for another day. The tissue blocks were then dehydrated and embedded in paraffin. The embedded tissues were cut and affixed on slides. Before immunohistochemical staining, the slides were deparaffinized, rehydrated, and performed antigen retrieve by high pressure and high temperature in Tris/EDTA pH 8.0 buffer solution. Immunohistochemical staining was conducted according to the manufacturers' instructions.
# Total RNA was isolated using the Direct-zol RNA MiniPrep Kit (Zymo Research, R2072). […] Data were analyzed using the 2^(−ΔΔCt) method. […]
# [4] = rhesus monkey, in vivo
compound,measurement,setting,value
CC(=O)OCC1O[C@@H](Oc2ccc(COC(=O)Nc3ccn([C@@H]4O[C@H](CO)C(O)C4(F)F)c(=O)n3)cc2[N+](=O)[O-])C(OC(C)=O)C(OC(C)=O)[C@H]1OC(C)=O (stereo partly drawn) [SSK1],Selective killing of senescent cells (viable cells),[1],"selectively killed by SSK1, while non-senescent cells were largely unaffected"
same,Selective elimination of senescent cells (viable cells),[2],specifically eliminated these senescent cells
same,Decline in physical functions (treadmill exhaustion distance),[3]; SSK1 0.5 mg/kg i.p.,attenuated
same,Lung fibrosis,[3]; SSK1 0.5 mg/kg i.p.,attenuated
same,"p21-positive cells and other senescence-associated markers in lungs (immunohistochemistry, RT-qPCR)",[3]; SSK1 0.5 mg/kg i.p.,decreased p21-positive cells and other senescence-associated markers
same,Decrease of SA-β-gal-positive cells in lungs vs vehicle,"[3]; SSK1 0.5 mg/kg i.p., five weeks",3.8 fold
same,β-gal positive macrophages in injured lungs,"[3]; SSK1 0.5 mg/kg, xCell analysis of RNA-seq, FIG. 6C",reduction of β-gal positive macrophages was observed
same,UA,[4]; 0.5 mg/kg,9 µmol/L
same,UA,[4]; 2 mg/kg,10 µmol/L

# Reference: US12576155B2, “Senolytic and antiinflammatory prodrugs and methods of use thereof” (priority 2019, dated 2026)
